These results are taken from the NIST ThermoML archive (doi:10.1021/je050473r).

± gives the expanded uncertainty stated by the source.

For this data set the following is noted: Liquid.
Where [1] appears, read: 303.15 K, Closed cell (Static) method.
[2] abbreviates: 353.15 K, Closed cell (Static) method.
Setting [3] is: 373.1 K, Closed cell (Static) method.
Setting [4] is: 413.15 K, Closed cell (Static) method.

One may read the vapor or sublimation pressure as the equilibrium pressure above the liquid or solid. Consider `ClCCCl` [1,2-dichloroethane], for which the “vapor or sublimation pressure” value under setting [1] is listed as 13.28 ± 1 kPa and the “vapor or sublimation pressure” value under setting [2] is on record as 90.9 ± 1 kPa.

With `CC(C)CC(C)(C)C` [2,2,4-trimethylpentane], the “vapor or sublimation pressure” value amounted to 103.49 ± 1.1 kPa under setting [3] and 282.8 ± 1.4 kPa under setting [4].

On to `CCc1cccs1` [2-ethylthiophene], for which the “vapor or sublimation pressure” value reads like this: under setting [3], 33.26 ± 1 kPa; under setting [4], 111.4 ± 1.1 kPa.

As to `Cc1cccs1` [2-methylthiophene], the “vapor or sublimation pressure” value runs as follows: under setting [3], 69.87 ± 1.1 kPa; under setting [4], 209.8 ± 1.2 kPa.

With `Cl/C=C/Cl` [(E)-1,2-dichloroethene], the “vapor or sublimation pressure” value turned out to be 53.33 ± 1.1 kPa under setting [1] and 269.9 ± 1.3 kPa under setting [2].

For the compound `N#CC1CC1` [cyclopropanecarbonitrile], the “vapor or sublimation pressure” value runs as follows: (373.1 K) 35.2 ± 1 kPa; (408.15 K) 102.2 ± 1.2 kPa.

Regarding `C=CCCCCCC` [oct-1-ene], the “vapor or sublimation pressure” value runs as follows: under setting [3], 53.82 ± 1.1 kPa; under setting [4], 165.9 ± 1.2 kPa.

As to `O` [water], the “vapor or sublimation pressure” value (373.1 K) is given as 101.4 ± 1.3 kPa and the “vapor or sublimation pressure” value (408.15 K) came to 312.4 ± 2.1 kPa.
